{
  "source": "patent US20050118658A1",
  "about": "“Use of ERRalpha phosphorylation status as a breast cancer biomarker” (priority 2003, published 2005)",
  "key": {"[1]": {"tested_on": "BT-474 cells", "conditions": "literature statement; cited from earlier work"}, "[2]": {"tested_on": "MCF-7 cells", "test": "7 day growth assay, DNA content per well, MCF-7 cells", "conditions": "1I M gefitinib, 7 days", "experimental": "Using 12-well plates, MCF-7 and BT-474 cells were seeded at 15,000 and 30,000 cells per well. Cells were cultured for 7 days in the presence of the indicated test agents with media changes at day 0, day 2 and day 5. Following the 7 day treatment course, cells were assayed for DNA content per well. The results shown represent the mean ± SEM of three replicate wells.\nMCF-7 and BT-474 cells were seeded in 12-well plates at 15,000 and 30,000 cells per well, respectively. Cells were allowed to grow in the presence of the test agents for a total of 7 days, after which, they were harvested for measurement of DNA content per well using a fluorescent DNA quantification kit (Bio-Rad, Hercules, Calif.). Day 0 was considered to be 24 h after the cells were seeded, when the medium was initially replaced with fresh medium containing the test agents. The cell culture medium was again exchanged with fresh medium containing the appropriate test agents on days 2 and 5. […] The effects on cellular proliferation of the test agents are shown as the percentage of DNA amount per well relative to the control treated cells."}, "[3]": {"tested_on": "phosphorylated MAPK (p-MAPK)", "test": "Immunoblot analysis of phosphorylated versus total MAPK in BT-474 cells", "format": "cell-based, human", "conditions": "48 h, 20 μg/ml trastuzumab, 1 μM gefitinib, 20 μM U0126 or 20 μM LY294002", "method": "(§1) BT-474 cells were co-transfected in parallel with the ERE(5x)-regulated and TATA dual-luciferase reporter gene sets along with the indicated expression plasmids. […] In panel (B), the cells were incubated for 48 h in estrogen-free medium supplemented with dimethyl sulfoxide as the drug vehicle control, 20 μM U0126 (MEK inhibitor), or 20 μM LY294002 (PI3K inhibitor) as indicated. After incubation for 48 h, the cells were harvested for dual-luciferase assays. Data were analyzed as described in the legend to FIG. 2. (C) Immunoblot analysis of protein extracts (20 μg per sample) prepared from BT-474 cells treated as in panels A and B above for luciferase activity. The membrane was probed with antibodies that react specifically with ERRα. Reactive proteins were visualized by enhanced chemiluminescence and autoradiography. (D) Immunoblot analysis as in panel C above, only the membrane was probed with antibodies that react specifically with phosphorylated Akt (p-Akt), total Akt, phosphorylated MAPK (p-MAPK) or total MAPK.\n(§2) Proteins were extracted in Cell Lysis Buffer (Cell Signaling Technology, Beverly, Mass.) supplemented with Protease Inhibitor Cocktail Set III and Phosphatase Inhibitor Cocktail Set II (Calbiochem). Protein amounts were quantified with Coomassie Protein Assay Reagent (Pierce Biotechnology) with BSA as the standard. […] In FIG. 5D, the membrane was probed sequentially with p44/42 MAPK polyclonal antibody, phospho-specific p44/42 MAPK (Thr202/Tyr204) monoclonal antibody E10, Akt polyclonal antibody, and phospho-specific Akt (Ser473) polyclonal antibody (Cell Signaling Technology). Reacting material was detected using horseradish peroxidase-conjugated secondary antibodies (Jackson ImmunoResearch Laboratories, West Grove, Pa.) together with enhanced chemiluminescence (Amersham Pharmacia) and autoradiography."}, "[4]": {"tested_on": "ERRα", "test": "Immunoblot analysis of ERRα expression in ERRα-transfected BT-474 cells", "format": "cell-based, human", "conditions": "BT-474 cells transfected with ERRα, 48 h; 20 μg/ml trastuzumab, 1 μM gefitinib, 20 μM U0126 or 20 μM LY294002", "method": "as §1, §2"}, "[5]": {"tested_on": "phosphorylated Akt (p-Akt)", "test": "Immunoblot analysis of phosphorylated versus total Akt in BT-474 cells", "format": "cell-based, human", "conditions": "48 h, 20 μg/ml trastuzumab, 1 μM gefitinib, 20 μM U0126 or 20 μM LY294002", "method": "as §1, §2"}, "[6]": {"tested_on": "MCF-7 cells", "conditions": "literature statement; cited from earlier work"}},
  "data": [
    {"smiles": "COc1cc2ncnc(Nc3ccc(F)c(Cl)c3)c2cc1OCCCN1CCOCC1", "note": "[gefitinib]", "values": [
      {"measurement": "effect on growth of BT-474 cells (known, ref. 26)", "setting": "[1]", "result": "significantly inhibit the growth"},
      {"measurement": "effect on growth of MCF-7 cells", "setting": "[2]", "result": "did not significantly affect the growth"},
      {"measurement": "phosphorylation of MAPK / MEK/MAPK pathway activation (immunoblot)", "setting": "[3]", "result": "inhibited activation of the MEK/MAPK and PI3K/Akt signaling pathways"},
      {"measurement": "ERRα expression (immunoblot)", "setting": "[4]", "result": "expression was maintained"},
      {"measurement": "phosphorylation of Akt / PI3K/Akt pathway activation (immunoblot)", "setting": "[5]", "result": "inhibited activation of the MEK/MAPK and PI3K/Akt signaling pathways"},
      {"measurement": "effect on growth of MCF-7 cells (known, ref. 35)", "setting": "[6]", "result": "affect only minimally the growth"}
    ]}
  ]
}
